Measured values: patent US11911364B2, “Positive allosteric modulators of GABAA receptor” (PEPTICOM LTD., priority 2018, dated 2024)

Biological target: T1, human GABA receptor (subunits α1β3γ2) (Homo sapiens, UniProt P14867+P18507+P28472)
T1 construct: expressed in transfected cells; host or cells: HEK293
Test: Manual whole-cell patch-clamp recording of GABA receptor-mediated Cl- current in HEK293 cells
Type: cell-based
Settings: for mode of action at the human GABAA receptor: human GABAA receptor α1β3γ2, electrophysiological recordings; for effect on human GABA receptor-mediated Cl- current: human α1β3γ2 receptor expressed in HEK293 cells, manual whole-cell patch-clamp
Protocol: All the compounds of the present invention were tested and validated using electrophysiological recordings on the human GABAA receptor comprising of the following subunits α1β3γ2. The compounds of the present invention are used in the preparation of a neuroactive pharmaceutical composition, in improving sperm motility or in labeling of biomolecules.
The human GABA receptor (subunits α1β3γ2) was expressed in HEK293 cells in manual whole-cell patch-clamp settings.
These compounds of the present invention are experimentally shown to specifically bind to the GABAA receptor. Therefore, they are capable of activating, inhibiting or modulating the GABAA receptor. These compounds were derived in-silico and tested in-vitro in cell cultures. […] The human GABA receptor (subunits α1β3γ2) used in these experiments was expressed in the HEK293 cells in manual whole-cell patch-clamp settings.

T1 sequence (P14867 28-456): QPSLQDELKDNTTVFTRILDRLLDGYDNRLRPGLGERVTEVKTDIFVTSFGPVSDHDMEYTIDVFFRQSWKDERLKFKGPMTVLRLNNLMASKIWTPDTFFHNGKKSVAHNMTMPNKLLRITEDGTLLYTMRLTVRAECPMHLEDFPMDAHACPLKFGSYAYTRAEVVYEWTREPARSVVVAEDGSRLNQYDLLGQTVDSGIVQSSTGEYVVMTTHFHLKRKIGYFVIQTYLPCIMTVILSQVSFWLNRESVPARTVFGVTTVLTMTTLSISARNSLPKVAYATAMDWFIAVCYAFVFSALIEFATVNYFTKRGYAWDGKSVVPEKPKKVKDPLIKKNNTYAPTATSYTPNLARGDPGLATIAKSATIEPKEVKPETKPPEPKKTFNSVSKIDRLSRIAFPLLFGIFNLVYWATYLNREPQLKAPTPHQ
T1 sequence (P28472 26-473): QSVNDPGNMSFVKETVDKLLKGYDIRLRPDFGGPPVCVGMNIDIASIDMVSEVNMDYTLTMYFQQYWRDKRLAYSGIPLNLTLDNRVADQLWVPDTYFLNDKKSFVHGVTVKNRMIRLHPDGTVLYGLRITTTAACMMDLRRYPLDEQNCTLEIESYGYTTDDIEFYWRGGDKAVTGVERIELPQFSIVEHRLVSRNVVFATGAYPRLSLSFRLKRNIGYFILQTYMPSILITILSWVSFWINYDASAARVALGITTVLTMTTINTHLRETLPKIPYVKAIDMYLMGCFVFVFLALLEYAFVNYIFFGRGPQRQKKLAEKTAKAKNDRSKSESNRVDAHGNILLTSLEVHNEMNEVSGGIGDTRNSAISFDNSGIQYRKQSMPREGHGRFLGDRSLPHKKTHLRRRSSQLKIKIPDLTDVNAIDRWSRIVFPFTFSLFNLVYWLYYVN
T1 sequence (P18507 40-475): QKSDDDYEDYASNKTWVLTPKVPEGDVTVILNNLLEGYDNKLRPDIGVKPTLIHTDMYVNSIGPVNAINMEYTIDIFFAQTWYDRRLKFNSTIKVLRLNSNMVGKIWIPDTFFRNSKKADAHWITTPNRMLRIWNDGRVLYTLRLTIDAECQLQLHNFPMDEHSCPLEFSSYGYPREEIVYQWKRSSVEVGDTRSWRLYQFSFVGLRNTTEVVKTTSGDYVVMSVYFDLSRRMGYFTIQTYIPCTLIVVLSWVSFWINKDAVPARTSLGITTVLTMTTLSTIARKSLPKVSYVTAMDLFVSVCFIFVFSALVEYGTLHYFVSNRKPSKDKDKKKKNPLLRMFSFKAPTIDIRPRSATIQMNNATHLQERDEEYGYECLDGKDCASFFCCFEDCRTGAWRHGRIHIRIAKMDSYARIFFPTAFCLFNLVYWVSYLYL

Row | SMILES | mode of action at the human GABAA receptor | effect on human GABA receptor-mediated Cl- current
1 | O=C(O)CC1(c2ccc(Br)cc2)CNC1 [Compound 2] | inhibiting | selective potentiation
2 | CC(C)CC(NC(=O)c1ccc(S(N)(=O)=O)o1)c1cccs1 (stereo not shown) [Compound 1] | positive allosteric modulation | selective potentiation
